Test results from patent publication US11247976B2, “Synthetic ligands that modulate the activity of the RhlR quorum sensing receptor” (Wisconsin Alumni Research Foundation, priority 2016, dated 2022).

How the values were obtained:
[1] = Hydrolytic stability in buffers of varying pH by HPLC; type: physicochemical; details: room temperature
Procedure: To assess the relative stability of the thiolactone and homoserine lactone moieties, stability studies were performed as reported previously,^53 with the following changes. Compounds RN22 and E22 (50 μM) were dissolved in either 1 mM 2-(N-morpholino)-ethanesulfonic acid (MES) buffer at pH 6, or 1 mM tris(hydroxymethyl)-aminomethane (TRIS) buffer at pH 7, pH 8, or pH 9. Solutions were placed static at room temperature, and 150 μL aliquots were taken every two hours for eight hours, then again at 24 hours. Samples were immediately separated via HPLC, and the area under the curve (AUC) at 220 nm was calculated and compared to the area at t=0. […] Degradation of both compounds to the hydrolysis product was confirmed via mass spectrometry of the resulting byproduct peak.
P. aeruginosa media is observed to become more alkaline over time, making the hydrolytic instability of the homoserine lactone head group a concern in developing AHL-type modulators for use in the wild-type organism. […] To evaluate their stability in a more direct assay, the stability of thiolactone RN22 relative to its lactone homolog E22 was monitored over time and at varying pH values using HPLC. The amount of compound RN22 remaining over 24 h was compared to E22. […] Degradation products were confirmed to be the hydrolyzed lactone head groups via mass spectroscopy.

LasR = molecular target: T1, LasR (Pseudomonas aeruginosa, UniProt P25084); assay: Selectivity of RhlR antagonism over LasR antagonism (E. coli LasR reporter, vs 2 nM OdDHL); type: cell-based, P. aeruginosa; details: RhlR % antagonism divided by LasR % antagonism
T1 construct: expressed in transfected cells; host or cells: E. coli JLD271 (ΔsdiA) with pJN105L and pSC11
Procedure: All media and reagents for bacterial culture were purchased from commercial sources. Bacteria were cultured in Luria-Bertani broth (LB) at 37° C. with shaking at 200 rpm unless otherwise noted. The bacterial reporter strains used for this study were (i) the heterologous E. coli strain JLD271 (ΔsdiA) harboring the RhlR expression plasmid pJN105R2 and the rhlI-lacZ transcriptional fusion reporter pSC11-rhlI*, (ii) the heterologous E. coli strain JLD271 (ΔsdiA) harboring the LasR expression plasmid pJN105L and the […] transcriptional fusion reporter pSC11, and (iii) the P. aeruginosa strain PAO-JP2 (ΔlasrhlI) harboring the rhlI-gfp transcriptional fusion reporter prhlI-LVAgfp. […]
To evaluate the modulatory activities of library compounds on RhlR and LasR using E. coli reporters, the strains JLD271/pJN105R2/pSC11-rhlI* and JLD271/pJN105L/pSC11 were used, respectively, as previously described.^38, 51 The following modifications were used in the RhlR agonism reporter assay, non-native compounds (10 μM or 1 mM) were compared to 1 mM BHL as the positive control. […] For RhlR agonism assays, activities of test compounds were measured relative to 1 mM BHL (the concentration required to induce a maximal level of RhlR activity). […] Activity was measured relative to 10 μM BHL. Inhibition was calculated by subtracting 100% from the relative activity value. […]

RhlR = molecular target: T2, RhlR (Pseudomonas aeruginosa, UniProt P54292); assay: P. aeruginosa RhlR reporter antagonism assay vs 10 μM BHL (PAO-JP2/prhlI-LVAgfp); type: cell-based
T2 construct: expressed in transfected cells; host or cells: E. coli JLD271 (ΔsdiA) with pJN105R2 (arabinose-induced) and pSC11-rhlI*
Procedure: FIGS. 10A and B illustrate exemplary dose-response curves for RhlR antagonism in the E. coli JLD271/pJN105R2/pSC11-rhlI* reporter strain vs. 10 μM BHL (FIG. 10A) and in the P. aeruginosa PAO-JP2/prhlI-LVAgfp reporter strain vs. 10 μM BHL (FIG. 10B).
To evaluate the RhlR-modulatory activities of selected compounds in P. aeruginosa, the ΔlasIrhlI strain PAO-JP2 harboring plasmid prhlI-LVAgfp was used as previously reported.^38 Briefly, a subculture was prepared by diluting an overnight culture 1:100 in fresh LB and was grown to OD600=0.3. […] Subculture was treated with 100 nM OdDHL (to induce native expression of RhlR) by adding the appropriate amount of OdDHL stock solution in DMSO. The subculture was then dispensed ([…] aliquots) into each synthetic compound-containing well of the microtiter plate.
Plates were incubated at 37° C. for 6 h, and GFP production was monitored by using a Synergy 2 plate reader (λex=500 nm, λem=540 nm; BioTek, Winooski, Vt.) and quantified with Gen5 1.05 software (BioTek). The final OD600 for each well was measured to normalize GFP production to cell density. All synthetic compounds were tested in triplicate, and three separate trials were performed with unique cultures. Agonism dose-response analyses were performed by testing compounds over a range of concentrations with the RhlR reporter.

T2 sequence (P54292 whole entry): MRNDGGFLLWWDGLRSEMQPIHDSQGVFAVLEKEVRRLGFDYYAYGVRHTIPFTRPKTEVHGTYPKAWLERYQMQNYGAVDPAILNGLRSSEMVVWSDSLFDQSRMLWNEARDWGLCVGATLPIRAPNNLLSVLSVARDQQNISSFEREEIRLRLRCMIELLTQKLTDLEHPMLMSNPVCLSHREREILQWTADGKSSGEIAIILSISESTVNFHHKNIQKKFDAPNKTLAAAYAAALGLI
T1 sequence (P25084 whole entry): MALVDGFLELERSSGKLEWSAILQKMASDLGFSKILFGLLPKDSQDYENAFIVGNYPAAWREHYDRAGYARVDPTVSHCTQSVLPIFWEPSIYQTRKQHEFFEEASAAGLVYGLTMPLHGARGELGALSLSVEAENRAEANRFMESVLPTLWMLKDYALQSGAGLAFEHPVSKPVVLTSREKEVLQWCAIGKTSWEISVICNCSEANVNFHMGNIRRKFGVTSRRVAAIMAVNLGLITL

## O=C(COc1ccc(I)cc1)N[C@H]1CCSC1=O [RN22]
[1]; pH 6, 1 mM MES buffer
  half-life at 50 μM: 44 days
[1]; pH 7, 1 mM TRIS buffer
  half-life at 50 μM: 47.2 days
[1]; pH 8, 1 mM TRIS buffer
  half-life at 50 μM: 9.88 days
[1]; pH 9, 1 mM TRIS buffer
  half-life at 50 μM: 2.18 days
LasR; tested concentration 1 mM
  Fold selectivity of RhlR antagonist over LasR antagonism: 74 fold
LasR; tested concentration 10 μm
  Fold selectivity of RhlR antagonist over LasR antagonism: 1.5 fold
RhlR; P. aeruginosa
  concentration blocking native ligand activity by 50%, relative to EC50 of native ligand: less than 4 fold
RhlR; P. aeruginosa reporter vs 10 μM BHL
  RhlR antagonist activity in words: maintained its strong inhibitory profile
RhlR; P. aeruginosa reporter vs 10 μM BHL, read-out: IC50 for RhlR inhibition
  IC50: 31 µM
RhlR; P. aeruginosa reporter, relative to activation of 10 μM BHL alone
  Maximum Inhibition (%): 85%
